Reference: patent US12409177B2, “FGFR inhibitors for the treatment of cancer” (BridGene Biosciences, Inc., priority 2019, dated 2025)
Read-outs that look alike come from different tables or passages of the source. Values belong to the compound of their own block, whether it stands above or below them.

How the values were obtained:
FGFR2 = FGFR2 (Homo sapiens, UniProt P21802); assay: FGFR2 kinase inhibition (IC50); assay type: biochemical
FGFR3 = FGFR3 (Homo sapiens, UniProt P22607); assay: FGFR3 kinase inhibition (IC50); assay type: biochemical
Sequence of FGFR3 (P22607 23-806): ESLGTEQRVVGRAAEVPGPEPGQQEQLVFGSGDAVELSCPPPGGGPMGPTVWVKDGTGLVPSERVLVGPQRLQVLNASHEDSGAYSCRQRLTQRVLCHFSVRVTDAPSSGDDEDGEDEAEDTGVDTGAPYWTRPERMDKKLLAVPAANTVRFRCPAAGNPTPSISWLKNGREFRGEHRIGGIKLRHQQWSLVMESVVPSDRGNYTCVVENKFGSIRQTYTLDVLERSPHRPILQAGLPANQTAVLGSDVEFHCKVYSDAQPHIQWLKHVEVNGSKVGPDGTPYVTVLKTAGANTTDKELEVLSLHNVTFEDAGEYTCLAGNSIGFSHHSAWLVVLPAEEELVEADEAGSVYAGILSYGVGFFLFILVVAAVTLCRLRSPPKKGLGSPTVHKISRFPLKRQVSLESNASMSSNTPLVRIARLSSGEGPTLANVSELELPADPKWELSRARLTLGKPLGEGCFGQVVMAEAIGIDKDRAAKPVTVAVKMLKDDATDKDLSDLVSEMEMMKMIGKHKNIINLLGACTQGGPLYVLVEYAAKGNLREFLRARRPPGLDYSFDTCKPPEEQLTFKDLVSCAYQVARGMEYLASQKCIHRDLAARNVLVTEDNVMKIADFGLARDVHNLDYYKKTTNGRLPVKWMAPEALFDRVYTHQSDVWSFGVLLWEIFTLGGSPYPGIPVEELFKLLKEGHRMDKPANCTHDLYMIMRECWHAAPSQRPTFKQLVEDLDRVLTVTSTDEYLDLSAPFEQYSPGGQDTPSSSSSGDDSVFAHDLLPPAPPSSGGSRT

FGFR4 = FGFR4 (Homo sapiens, UniProt P22455); assay: FGFR4 kinase inhibition (IC50); assay type: biochemical
Sequence of FGFR4 (P22455 22-802): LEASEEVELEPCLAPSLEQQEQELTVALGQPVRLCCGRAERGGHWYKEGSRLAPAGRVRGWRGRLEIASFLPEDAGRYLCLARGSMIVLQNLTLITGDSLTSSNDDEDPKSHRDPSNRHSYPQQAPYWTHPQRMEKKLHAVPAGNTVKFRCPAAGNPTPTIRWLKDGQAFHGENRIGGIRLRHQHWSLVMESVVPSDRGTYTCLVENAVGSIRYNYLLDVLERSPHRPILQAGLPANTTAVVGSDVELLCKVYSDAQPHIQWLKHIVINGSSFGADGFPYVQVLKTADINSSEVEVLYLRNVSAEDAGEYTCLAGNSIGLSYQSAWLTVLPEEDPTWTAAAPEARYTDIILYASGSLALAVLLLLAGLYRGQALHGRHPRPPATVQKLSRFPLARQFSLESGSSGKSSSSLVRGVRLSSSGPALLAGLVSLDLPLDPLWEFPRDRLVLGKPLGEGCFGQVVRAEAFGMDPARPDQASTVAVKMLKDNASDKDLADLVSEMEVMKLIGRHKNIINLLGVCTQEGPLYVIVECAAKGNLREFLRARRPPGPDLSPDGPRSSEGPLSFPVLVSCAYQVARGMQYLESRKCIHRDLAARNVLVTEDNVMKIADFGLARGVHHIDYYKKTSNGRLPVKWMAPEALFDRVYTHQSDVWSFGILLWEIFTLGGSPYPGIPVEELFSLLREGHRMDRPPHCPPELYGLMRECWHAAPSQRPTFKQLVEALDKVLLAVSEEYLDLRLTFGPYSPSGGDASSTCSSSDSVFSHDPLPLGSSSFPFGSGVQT

FGFR1 = FGFR1 (Homo sapiens, UniProt P11362); assay: FGFR1 kinase inhibition (IC50); assay type: biochemical
Sequence of FGFR1 (P11362 22-822): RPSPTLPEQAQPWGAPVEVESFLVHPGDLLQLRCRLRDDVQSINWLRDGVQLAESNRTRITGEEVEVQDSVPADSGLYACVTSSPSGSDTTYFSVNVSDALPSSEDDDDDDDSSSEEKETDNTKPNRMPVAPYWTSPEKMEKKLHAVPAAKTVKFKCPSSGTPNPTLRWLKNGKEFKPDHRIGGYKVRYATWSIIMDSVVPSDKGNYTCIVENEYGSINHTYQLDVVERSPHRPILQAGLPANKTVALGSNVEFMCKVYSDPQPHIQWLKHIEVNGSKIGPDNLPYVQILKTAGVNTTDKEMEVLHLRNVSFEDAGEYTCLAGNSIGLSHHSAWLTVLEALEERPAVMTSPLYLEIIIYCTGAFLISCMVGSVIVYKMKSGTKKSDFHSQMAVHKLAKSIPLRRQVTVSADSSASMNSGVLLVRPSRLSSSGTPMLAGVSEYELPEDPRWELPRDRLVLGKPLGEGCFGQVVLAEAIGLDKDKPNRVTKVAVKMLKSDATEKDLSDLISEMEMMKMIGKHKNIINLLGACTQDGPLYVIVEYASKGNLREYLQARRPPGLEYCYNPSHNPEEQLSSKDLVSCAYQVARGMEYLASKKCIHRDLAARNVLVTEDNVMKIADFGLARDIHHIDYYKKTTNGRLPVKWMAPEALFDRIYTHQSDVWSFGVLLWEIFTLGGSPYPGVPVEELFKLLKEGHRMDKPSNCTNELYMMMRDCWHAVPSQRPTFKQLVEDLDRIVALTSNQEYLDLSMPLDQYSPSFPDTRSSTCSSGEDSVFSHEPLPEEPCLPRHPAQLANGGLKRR

[1] = Solubility in 5% DMSO and 95% of (20% HPBC in PBS); assay type: physicochemical
Description: The inventive compound 1 improves the FGFR4-selective inhibitory effect.

Protein binding = assay type: in vitro ADME
Mouse plasma stability = assay type: in vitro ADME; conditions: value ± SE, read-out: Ms Plasma Stability t1/2 (SE)
MDCK permeability = assay type: in vitro ADME; conditions: dog
Hepatocyte = assay: Mouse hepatocyte clearance; assay type: in vitro ADME; conditions: mouse hepatocytes; value ± SE
[2] = Pharmacokinetics in mice (IP, IV, PO); assay type: in vivo; conditions: for clearance / half-life / Vd / bioavailability / AUC(0-inf) / AUC(0-t) / Cmax / MRT inf / MRT last / Tmax: in vivo, mouse; for Vd: read-out: Vss
Experimental: FIG. 2A is the pharmacokinetic data of compound 1 administered by intraperitoneal injection (IP) into mice at 10 mg/kg, according to some embodiments of the present disclosure;
FIG. 2B is the pharmacokinetic data of compound 1 administered by intravenous injection (IV) into mice at 1 mg/kg and per os (PO) at 5 mg/kg, according to some embodiments of the present disclosure;

[3] = Pharmacokinetics in mice (IP, IV, PO); conditions: mouse, in vivo, PO 100 mg/kg
[4] = read-out: FGFR2 Inhibition (IC50 class)
[5] = read-out: FGFR3 Inhibition (IC50 class)
[6] = read-out: FGFR4 inhibition (IC50 class)
[7] = read-out: FGFR1 Inhibition (IC50 class)

Sequence of FGFR2 (P21802 22-821): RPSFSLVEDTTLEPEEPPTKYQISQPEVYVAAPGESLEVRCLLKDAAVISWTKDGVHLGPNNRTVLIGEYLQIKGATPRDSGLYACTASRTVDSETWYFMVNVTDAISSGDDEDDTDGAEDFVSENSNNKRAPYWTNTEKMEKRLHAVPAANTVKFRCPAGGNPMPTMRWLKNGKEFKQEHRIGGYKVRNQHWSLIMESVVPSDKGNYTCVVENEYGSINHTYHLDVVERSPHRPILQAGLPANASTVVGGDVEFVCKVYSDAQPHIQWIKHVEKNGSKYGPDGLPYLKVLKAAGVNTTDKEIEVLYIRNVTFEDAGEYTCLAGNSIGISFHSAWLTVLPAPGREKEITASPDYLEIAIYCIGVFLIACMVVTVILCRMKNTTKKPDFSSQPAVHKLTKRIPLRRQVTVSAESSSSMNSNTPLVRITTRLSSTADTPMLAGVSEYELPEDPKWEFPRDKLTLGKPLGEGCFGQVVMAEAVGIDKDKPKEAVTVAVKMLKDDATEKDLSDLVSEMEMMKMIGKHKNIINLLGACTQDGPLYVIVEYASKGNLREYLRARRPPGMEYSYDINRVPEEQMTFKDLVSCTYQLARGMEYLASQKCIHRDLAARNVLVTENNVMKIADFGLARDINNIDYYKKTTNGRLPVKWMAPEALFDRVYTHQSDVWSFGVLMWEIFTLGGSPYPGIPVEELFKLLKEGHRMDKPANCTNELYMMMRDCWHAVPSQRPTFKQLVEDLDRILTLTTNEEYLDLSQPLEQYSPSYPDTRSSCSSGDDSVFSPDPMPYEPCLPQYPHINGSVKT

SMILES: C=CC(=O)Nc1cc(OCCN(CC)CC)ccc1Nc1cc(-c2cccnc2Nc2c(Cl)c(OC)cc(OC)c2Cl)ncn1 [Compound 15]
- IC50 (FGFR2; [4]): ≥ 1 µM
- IC50 (FGFR3; [5]): ≥ 1 µM
- IC50 (FGFR4; [6]): ≤ 0.01 µM
- IC50 (FGFR1; [7]): ≥ 1 µM

SMILES: C=CC(=O)Nc1cc(OC2COC2)ccc1Nc1cc(-c2cccnc2Nc2c(Cl)c(OC)cc(OC)c2Cl)ncn1 [Compound 11, N-[2-[[6-[2-(2,6-dichloro-3,5-dimethoxy-anilino)-3-pyridyl]pyrimidin-4-yl]amino]-5-(oxetan-3-yloxy)phenyl]prop-2-enamide]
- IC50 (FGFR2; [4]): ≥ 1 µM
- IC50 (FGFR3; [5]): ≥ 1 µM
- IC50 (FGFR4; [6]): ≤ 0.01 µM
- IC50 (FGFR1; [7]): ≥ 1 µM

SMILES: C=CC(=O)Nc1cc(OCCN2CCCC2)ccc1Nc1cc(-c2cccnc2Nc2c(Cl)c(OC)cc(OC)c2Cl)ncn1 [Compound 12, N-[2-[[6-[2-(2,6-dichloro-3,5-dimethoxy-anilino)-3-pyridyl]pyrimidin-4-yl]amino]-5-(2-pyrrolidin-1-ylethoxy)phenyl]prop-2-enamide]
- IC50 (FGFR2; [4]): 0.1 to 1 µM
- IC50 (FGFR3; [5]): ≥ 1 µM
- IC50 (FGFR4; [6]): ≤ 0.01 µM
- IC50 (FGFR1; [7]): 0.1 to 1 µM

SMILES: C=CC(=O)N[C@H]1CC[C@H]1Nc1cc(-c2cccnc2Nc2c(Cl)c(OC)cc(OC)c2Cl)ncn1 [Compound 3]
- IC50 (FGFR4; [6]): 0.1 to 1 µM

SMILES: C=CC(=O)Nc1cc(OCC2CN(C)C2)ccc1Nc1cc(-c2cccnc2Nc2c(Cl)c(OC)cc(OC)c2Cl)ncn1 [Compound 7, N-[2-[[6-[2-(2,6-dichloro-3,5-dimethoxy-anilino)-3-pyridyl]pyrimidin-4-yl]amino]-5-[(1-methylazetidin-3-yl)methoxy]phenyl]prop-2-enamide]
- IC50 (FGFR2; [4]): 0.1 to 1 µM
- IC50 (FGFR3; [5]): ≥ 1 µM
- IC50 (FGFR4; [6]): ≤ 0.01 µM
- IC50 (FGFR1; [7]): 0.1 to 1 µM

SMILES: C=CC(=O)NC1CC1Nc1cc(-c2cccnc2Nc2c(Cl)c(OC)cc(OC)c2Cl)ncn1 (centres unmarked) [Compound 2]
- IC50 (FGFR2; [4]): 0.1 to 1 µM
- IC50 (FGFR3; [5]): 0.1 to 1 µM
- IC50 (FGFR4; [6]): ≤ 0.01 µM
- IC50 (FGFR1; [7]): 0.01 to 0.1 µM

SMILES: C=CC(=O)Nc1cc(OC2CCOC2)ccc1Nc1cc(-c2cccnc2Nc2c(Cl)c(OC)cc(OC)c2Cl)ncn1 (centres unmarked) [Compound 10, N-[2-[[6-[2-(2,6-dichloro-3,5-dimethoxy-anilino)-3-pyridyl]pyrimidin-4-yl]amino]-5-tetrahydrofuran-3-yloxy-phenyl]prop-2-enamide]
- IC50 (FGFR2; [4]): ≥ 1 µM
- IC50 (FGFR3; [5]): ≥ 1 µM
- IC50 (FGFR4; [6]): ≤ 0.01 µM
- IC50 (FGFR1; [7]): ≥ 1 µM

SMILES: C=CC(=O)N[C@H]1CCC[C@H]1Nc1cc(-c2cccnc2Nc2c(Cl)c(OC)cc(OC)c2Cl)ncn1 (single isomer, unassigned) [Compound 16, N-[cis-2-[[6-[2-(2,6-dichloro-3,5-dimethoxy-anilino)-3-pyridyl]pyrimidin-4-yl]amino]cyclopentyl]prop-2-enamide]
- IC50 (FGFR4; [6]): 0.1 to 1 µM

SMILES: C=CC(=O)Nc1cccc(C)c1Nc1cc(-c2cccnc2Nc2c(Cl)c(OC)cc(OC)c2Cl)ncn1 [Compound 5, N-(2-((6-(2-((2,6-dichloro-3,5-dimethoxyphenyl)amino)pyridin-3-yl)pyrimidin-4-yl)amino)-3-methylphenyl)acrylamide, reference compound]
- solubility [1]: poor solubility
- AUC(0-t) [3]: 1450 ng·h/mL
- Tmax [3]: 6.67 h
- bioavailability [3]: 8.09%
- half-life (Mouse plasma stability): 3.69 ± 0.928 h
- Papp A→B (MDCK permeability): 11.4 ×10⁻⁶ cm/s
- Hepatocyte Clin Ms (SE) (Hepatocyte): 41.7 ± 1.73 µL/min/1e6 cells
- clearance ([2]; intravenous, Table 2 summary): 14 mL/min/kg
- half-life ([2]; intravenous, Table 2 summary): 15 h
- bioavailability ([2]; oral, Table 2 summary): 8%
- T1/2 ([2]; mice, IP 10 mg/kg): 1.23 h
- AUC(0-inf) ([2]; mice, IP 10 mg/kg): 1280 ng·h/mL
- AUC(0-t) ([2]; mice, IP 10 mg/kg): 1270 ng·h/mL
- Cmax ([2]; mice, IP 10 mg/kg): 865 ng/mL
- MRT inf ([2]; mice, IP 10 mg/kg): 1.66 h
- MRT last ([2]; mice, IP 10 mg/kg): 1.57 h
- Tmax ([2]; mice, IP 10 mg/kg): 0.25 h
- AUC(0-inf) ([2]; mice, IV 5 mg/kg): 1240 ng·h/mL
- AUC(0-t) ([2]; mice, IV 5 mg/kg): 896 ng·h/mL
- Cmax ([2]; mice, IV 5 mg/kg): 470 ng/mL
- MRT inf ([2]; mice, IV 5 mg/kg): 18.5 h
- MRT last ([2]; mice, IV 5 mg/kg): 7.71 h
- Tmax ([2]; mice, IV 5 mg/kg): 0.083 h
- clearance ([2]; mice, IV 5 mg/kg): 13.9 mL/min/kg
- half-life ([2]; mice, IV 5 mg/kg): 15.1 h
- Vd ([2]; mice, IV 5 mg/kg): 15.3 L/kg
- Cmax ([2]; mice, PO 100 mg/kg): 180 ng/mL
- MRT last ([2]; mice, PO 100 mg/kg): 6.1 h

SMILES: C=CC(=O)Nc1cc(OC2CCN(C)CC2)ccc1Nc1cc(-c2cccnc2Nc2c(Cl)c(OC)cc(OC)c2Cl)ncn1 [Compound 8, N-[2-[[6-[2-(2,6-dichloro-3,5-dimethoxy-anilino)-3-pyridyl]pyrimidin-4-yl]amino]-5-[(1-methyl-4-piperidyl)oxy]phenyl]prop-2-enamide]
- IC50 (FGFR2; [4]): 0.1 to 1 µM
- IC50 (FGFR3; [5]): ≥ 1 µM
- IC50 (FGFR4; [6]): ≤ 0.01 µM
- IC50 (FGFR1; [7]): ≥ 1 µM

The remaining lines, values ahead:

- IC50 (FGFR2; [4]): 0.1 to 1 µM
- IC50 (FGFR3; [5]): ≥ 1 µM
- IC50 (FGFR4; [6]): ≤ 0.01 µM
- IC50 (FGFR1; [7]): 0.1 to 1 µM
SMILES: C=CC(=O)Nc1cc(OC2CCN(C)C2)ccc1Nc1cc(-c2cccnc2Nc2c(Cl)c(OC)cc(OC)c2Cl)ncn1 (centres unmarked) [Compound 9, N-[2-[[6-[2-(2,6-dichloro-3,5-dimethoxy-anilino)-3-pyridyl]pyrimidin-4-yl]amino]-5-(1-methylpyrrolidin-3-yl)oxy-phenyl]prop-2-enamide]

- IC50 (FGFR4; [6]): 0.01 to 0.1 µM
SMILES: C=CC(=O)N[C@H]1CCOC[C@H]1Nc1cc(-c2cccnc2Nc2c(Cl)c(OC)cc(OC)c2Cl)ncn1 [Compound 4]

- IC50 (FGFR2; [4]): 0.1 to 1 µM
- IC50 (FGFR3; [5]): ≥ 1 µM
- IC50 (FGFR4; [6]): ≤ 0.01 µM
- IC50 (FGFR1; [7]): 0.1 to 1 µM
SMILES: C=CC(=O)Nc1cc(OC2CN(C)C2)ccc1Nc1cc(-c2cccnc2Nc2c(Cl)c(OC)cc(OC)c2Cl)ncn1 [Compound 6, N-[2-[[6-[2-(2,6-dichloro-3,5-dimethoxy-anilino)-3-pyridyl]pyrimidin-4-yl]amino]-5-(1-methylazetidin-3-yl)oxy-phenyl]prop-2-enamide]

- IC50 (FGFR2; [4]): ≥ 1 µM
- IC50 (FGFR2; read-out: IC50 towards FGFR2): 1.87 µM
- solubility [1]: much-improved solubility
- fraction unbound (Protein binding): 0.08
- half-life (Mouse plasma stability): 19.1 ± 5.78 h
- Papp A→B (MDCK permeability): 25.8 ×10⁻⁶ cm/s
- IC50 (FGFR3; [5]): ≥ 1 µM
- IC50 (FGFR3; read-out: IC50 towards FGFR3): 4.44 µM
- IC50 (FGFR4; [6]): 0.01 to 0.1 µM
- IC50 (FGFR4; read-out: IC50 towards FGFR4): 0.02 µM
- Hepatocyte Clin Ms (SE) (Hepatocyte): 43.6 ± 1.3 µL/min/1e6 cells
- clearance ([2]; intravenous, Table 2 summary): 26.7 mL/min/kg
- half-life ([2]; intravenous, Table 2 summary): 0.52 h
- Vd ([2]; intravenous, Table 2 summary): 0.88 L/kg
- bioavailability ([2]; oral, Table 2 summary): 20.9%
- AUC(0-inf) ([2]; mice, IP 10 mg/kg): 9610 ng·h/mL
- AUC(0-t) ([2]; mice, IP 10 mg/kg): 9610 ng·h/mL
- Cmax ([2]; mice, IP 10 mg/kg): 14900 ng/mL
- MRT inf ([2]; mice, IP 10 mg/kg): 0.67 h
- MRT last ([2]; mice, IP 10 mg/kg): 0.67 h
- Tmax ([2]; mice, IP 10 mg/kg): 0.25 h
- half-life ([2]; mice, IP 10 mg/kg): 2.81 h
- AUC(0-inf) ([2]; mice, IV 1 mg/kg): 621 ng·h/mL
- AUC(0-t) ([2]; mice, IV 1 mg/kg): 618 ng·h/mL
- Cmax ([2]; mice, IV 1 mg/kg): 849 ng/mL
- MRT inf ([2]; mice, IV 1 mg/kg): 0.537 h
- MRT last ([2]; mice, IV 1 mg/kg): 0.515 h
- Tmax ([2]; mice, IV 1 mg/kg): 0.083 h
- clearance ([2]; mice, IV 1 mg/kg): 27.2 mL/min/kg
- half-life ([2]; mice, IV 1 mg/kg): 0.522 h
- Vd ([2]; mice, IV 1 mg/kg): 0.876 L/kg
- AUC(0-inf) ([2]; mice, PO 5 mg/kg): 648 ng·h/mL
- AUC(0-t) ([2]; mice, PO 5 mg/kg): 465 ng·h/mL
- Cmax ([2]; mice, PO 5 mg/kg): 119 ng/mL
- MRT inf ([2]; mice, PO 5 mg/kg): 4.02 h
- MRT last ([2]; mice, PO 5 mg/kg): 3.42 h
- Tmax ([2]; mice, PO 5 mg/kg): 3.17 h
- bioavailability ([2]; mice, PO 5 mg/kg): 20.9%
- half-life ([2]; mice, PO 5 mg/kg): 2.73 h
- IC50 (FGFR1; [7]): ≥ 1 µM
- IC50 (FGFR1; read-out: IC50 towards FGFR1): 1.28 µM
SMILES: C=CC(=O)N[C@H]1COC[C@H]1Nc1cc(-c2cccnc2Nc2c(Cl)c(OC)cc(OC)c2Cl)ncn1 [Compound 1]

- IC50 (FGFR2; [4]): ≥ 1 µM
- IC50 (FGFR3; [5]): ≥ 1 µM
- IC50 (FGFR4; [6]): ≤ 0.01 µM
- IC50 (FGFR1; [7]): ≥ 1 µM
SMILES: C=CC(=O)Nc1cc(OCCN(C)C)ccc1Nc1cc(-c2cccnc2Nc2c(Cl)c(OC)cc(OC)c2Cl)ncn1 [Compound 14]

- IC50 (FGFR4; [6]): ≥ 1 µM
SMILES: C=CC(=O)Nc1ncn(C)c1Nc1cc(-c2cccnc2Nc2c(Cl)c(OC)cc(OC)c2Cl)ncn1 [Compound 13, N-[5-[[6-[2-(2,6-dichloro-3,5-dimethoxy-anilino)-3-pyridyl]pyrimidin-4-yl]amino]-1-methyl-imidazol-4-yl]prop-2-enamide]
